Test results reported in PMC11292009, “Mapping protein binding sites by photoreactive fragment pharmacophores” (Communications Chemistry, 2024).

How the values were obtained:
Assay type in all cases: binding
[1] = tested on: carbonic anhydrase II (CA); assay: Intact protein MS photoaffinity labeling screen, carbonic anhydrase; conditions: intact protein MS after 10 min irradiation
Method: (§1) Using a plate-based format with one fragment per well, each fragment was incubated with the target proteins for 15 min to allow for the formation of non-covalent interactions. […] Finally, the results were directly analyzed from the plate using intact protein mass spectrometry by observing the mass additions that correspond to successful labeling (Fig. 2c, for labeling % values see Supplementary data). The library was first characterized against three benchmark proteins like carbonic anhydrase (CA), lysozyme (Lyo), and myoglobin (Myo).

STAT5B-NTD [2] = tested on: T1, STAT5B-NTD; assay: Intact MS labeling screen, STAT5B-NTD conjugated with photocatalyst Ir-G2-PEG3-COOH (450 nm); conditions: 450 nm 10 min;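 further: 0.14 µL of 100 mM DMSO fragment stock added to the conjugate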
T1 construct: His-SUMO (N, cleaved yes); made in house; host or cells: E. coli BL21 RILP
Method: For the photocatalysis experiments, 1.4 µL photocatalyst (in 1.4 mM DMSO solution, 10 eq) was pre-incubated with 1.5 µL coupling reagent (0.75 µL, 5.6 mM EDC (20 eq)+0.75 µL 4.2 mM NHS and 1.5 µL 2.1 mM (15 eq) BOP for 30 min in dark. 30 µL STAT5B-NTD (in 7 µM concentration) was added and incubated further at room temperature overnight or at 37 °C for 1 h in dark. After addition of 0.14 µL PhP (in 100 mM DMSO) the solution was further incubated in dark for 1 h. Irradiation was carried out using 450 nm LED lamp (7.6Vx0A) for 10 min at 4 °C.
(§2) During the analysis, the column temperature was maintained at a constant 60 °C, and a sample volume of 3 µL was injected for each analysis. Data acquisition was conducted in positive ion mode within the m/z 100–2000 (mass-to-charge ratio) range. For the full protocol and spectra of the hits, see Supplementary Note 2.

myoglobin (Myo) = assay: Intact protein MS photoaffinity labeling screen, myoglobin; conditions: intact protein MS after 10 min irradiation
Method: as §1

lysozyme (Lyo) = assay: Intact protein MS photoaffinity labeling screen, lysozyme; conditions: intact protein MS after 10 min irradiation
Method: as §1

KRas^G12D = tested on: T2, KRas^G12D; assay: Intact MS photoaffinity labeling screen, KRas G12D (302 nm, LCMS-TOF); conditions: for MS labeling percentage, KRas: KRas G12D, 302 nm 10 min; for KRAS-G12D: experimental hit status flag (0/1); for experimental hit status KRAS-G12D: 0/1 flag
T2 construct: purchased GSK/GenScript
Method: as §1
(§3) The PhP library was screened against BRD4-BD1 and KRas^G12D as follows. […] The probe plate was placed on ice. 15 μL of protein stock solution (1 μM BRD4-BD1 (GSK/GenScript) or KRas^G12D (GSK/GenScript) in PBS buffer) was dispensed into wells containing fragments. The plate was left on ice for 15 min for incubation, then irradiated at 302 nm for 10 min, and centrifuged (1000 rpm, 1 min) to remove any bubbles. […] The deconvoluted spectra were analyzed using R Studio software.

BRD4-BD1 = tested on: T3, BRD4-BD1; assay: Intact MS photoaffinity labeling screen, BRD4-BD1 (302 nm, LCMS-TOF); conditions: for MS labeling percentage, BRD4: BRD4-BD1, 302 nm 10 min; for BRD4-BD1: experimental hit status flag (0/1); for experimental hit status BRD4-BD1: 0/1 flag
T3 construct: screened the PhP library against the first bromodomain of BRD4 (BRD4-BD1); purchased GSK/GenScript
Method: as §1, §3

STAT5B-NTD [3] = tested on: T1, STAT5B-NTD; assay: Intact MS photoaffinity labeling screen, STAT5B-NTD (365 nm, UHPLC-MS); conditions: for MS labeling percentage, STAT5B: STAT5B-NTD, 365 nm 10 min, no photocatalyst; for STAT5B-NTD: experimental hit status flag (0/1); for experimental hit status STAT5B-NTD: 0/1 flag;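 on MS labeling percentage, STAT5B: 0.17 µL of 100 mM DMSO fragment stock added to the protein sample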
Method: STAT5B protein in 7 µM concentration in pH 7.4 PBS buffer was pre-incubated with 0.17 µL PhP (in 100 mM DMSO solution) for 1 h at room temperature in dark. Irradiation was carried out at 4 °C for 10 min using 365 nm UV lamp.
as §2

MS labeling percentage, CA [1] [%] | Structure (SMILES) | MS labeling percentage, STAT5B+photocat (STAT5B-NTD [2]) [%] | MS labeling percentage, Myo (myoglobin (Myo)) [%] | MS labeling percentage, Lyo (lysozyme (Lyo)) [%] | MS labeling percentage, KRas (KRas^G12D) [%] | KRAS-G12D (KRas^G12D) | MS labeling percentage, BRD4 (BRD4-BD1) [%] | BRD4-BD1 (BRD4-BD1) | MS labeling percentage, STAT5B (STAT5B-NTD [3]) [%] | STAT5B-NTD (STAT5B-NTD [3]) | experimental hit status KRAS-G12D (KRas^G12D) | experimental hit status BRD4-BD1 (BRD4-BD1) | experimental hit status STAT5B-NTD (STAT5B-NTD [3])
0.3 | CC1(CCC(=O)NC2CCCC(NC(=O)OC(C)(C)C)C2)N=N1 (stereo not shown) [PhP015, CC(C)(C)OC(=O)NC1CCCC(C1)NC(=O)CCC2(C)N=N2] | 1.6 | 0.2 | 1.1 | 0.6 | 0 | 0.3 | 0 | 1 | 0 | – | – | –
0.6 | CC1(CCC(=O)NC2CCc3nc(C(C)(C)C)cn3C2)N=N1 (stereo not shown) [PhP016, CC(C)(C)c(c1)nc(n12)CCC(C2)NC(=O)CCC3(C)N=N3] | 8.9 | 0.2 | 0 | 0.2 | 0 | 0.3 | 0 | 0 | 0 | – | – | –
0.6 | Cc1nc2cc(NC(=O)CCC3(C)N=N3)ccc2n1-c1ccccc1 [PhP017, c1ccccc1-n(c(n2)C)c(c23)ccc(c3)NC(=O)CCC4(C)N=N4] | 4.4 | 0.5 | 0.1 | 0.9 | 0 | 3.4 | 0 | 1 | 0 | – | – | –
0.2 | COC(=O)C(NC(=O)CCC1(C)N=N1)c1ccc(C)cc1 (stereo not shown) [PhP019, c1cc(C)ccc1C(C(=O)OC)NC(=O)CCC2(C)N=N2] | 2.7 | 0.1 | 0 | 0 | – | 0.3 | – | 1 | – | 0 | 0 | 0
0.2 | Cn1c(CCNC(=O)CCC2(C)N=N2)nc2ccccc21 [PhP020, c1cccc(c12)n(C)c(n2)CCNC(=O)CCC3(C)N=N3] | 0.6 | 0.3 | 0 | 0 | – | 0.4 | – | 0 | – | 0 | 0 | 0

The next lines start with the molecule.

Structure (SMILES) | MS labeling percentage, CA [1] [%] | MS labeling percentage, STAT5B+photocat (STAT5B-NTD [2]) [%] | MS labeling percentage, Myo (myoglobin (Myo)) [%] | MS labeling percentage, Lyo (lysozyme (Lyo)) [%] | MS labeling percentage, KRas (KRas^G12D) [%] | KRAS-G12D (KRas^G12D) | MS labeling percentage, BRD4 (BRD4-BD1) [%] | BRD4-BD1 (BRD4-BD1) | MS labeling percentage, STAT5B (STAT5B-NTD [3]) [%] | STAT5B-NTD (STAT5B-NTD [3]) | experimental hit status KRAS-G12D (KRas^G12D) | experimental hit status BRD4-BD1 (BRD4-BD1) | experimental hit status STAT5B-NTD (STAT5B-NTD [3])
CC1(CCC(=O)Nc2nc(-c3c[nH]c(C(N)=O)c3)cs2)N=N1 [PhP011, N1=NC1(C)CCC(=O)Nc2nc(cs2)-c3c[nH]c(c3)C(=O)N] | 0 | 3.4 | 0 | 0 | 0.2 | 0 | 0.2 | 0 | 2 | 0 | – | – | –
CC(Cc1cccc(OCc2ccccc2)c1)NC(=O)CCC1(C)N=N1 (stereo not shown) [PhP013, N1=NC1(C)CCC(=O)NC(C)Cc2cccc(c2)OCc3ccccc3] | 0.4 | 8.8 | 0.3 | 0.3 | – | 0 | 40.6 | 0 | 0 | 0 | – | – | –
COC(=O)C(Cc1c[nH]c2ccccc12)NC(=O)CCC1(C)N=N1 (stereo not shown) [PhP014, N1=NC1(C)CCC(=O)NC(C(=O)OC)Cc(c[nH]2)c(c23)cccc3] | 0.3 | 7.7 | 0.1 | 0.3 | 1.3 | 0 | 0.4 | 0 | 2 | 0 | – | – | –
